According to patent US20240316047A1, “INHIBITORS OF RNA HELICASE DHX9 AND USES THEREOF” (ACCENT THERAPEUTICS, INC., priority 2022, published 2024):

Biological target: Human recombinant DHX9 protein (Homo sapiens (Human), UniProt Q08211)
Experiment: DHX9 ATPase assay (ADP-Glo)
Format: biochemical
Conditions: for IC50: read-out: DHX9 Biochemical Inflection Point

Sequence of Human recombinant DHX9 protein (Q08211 whole entry): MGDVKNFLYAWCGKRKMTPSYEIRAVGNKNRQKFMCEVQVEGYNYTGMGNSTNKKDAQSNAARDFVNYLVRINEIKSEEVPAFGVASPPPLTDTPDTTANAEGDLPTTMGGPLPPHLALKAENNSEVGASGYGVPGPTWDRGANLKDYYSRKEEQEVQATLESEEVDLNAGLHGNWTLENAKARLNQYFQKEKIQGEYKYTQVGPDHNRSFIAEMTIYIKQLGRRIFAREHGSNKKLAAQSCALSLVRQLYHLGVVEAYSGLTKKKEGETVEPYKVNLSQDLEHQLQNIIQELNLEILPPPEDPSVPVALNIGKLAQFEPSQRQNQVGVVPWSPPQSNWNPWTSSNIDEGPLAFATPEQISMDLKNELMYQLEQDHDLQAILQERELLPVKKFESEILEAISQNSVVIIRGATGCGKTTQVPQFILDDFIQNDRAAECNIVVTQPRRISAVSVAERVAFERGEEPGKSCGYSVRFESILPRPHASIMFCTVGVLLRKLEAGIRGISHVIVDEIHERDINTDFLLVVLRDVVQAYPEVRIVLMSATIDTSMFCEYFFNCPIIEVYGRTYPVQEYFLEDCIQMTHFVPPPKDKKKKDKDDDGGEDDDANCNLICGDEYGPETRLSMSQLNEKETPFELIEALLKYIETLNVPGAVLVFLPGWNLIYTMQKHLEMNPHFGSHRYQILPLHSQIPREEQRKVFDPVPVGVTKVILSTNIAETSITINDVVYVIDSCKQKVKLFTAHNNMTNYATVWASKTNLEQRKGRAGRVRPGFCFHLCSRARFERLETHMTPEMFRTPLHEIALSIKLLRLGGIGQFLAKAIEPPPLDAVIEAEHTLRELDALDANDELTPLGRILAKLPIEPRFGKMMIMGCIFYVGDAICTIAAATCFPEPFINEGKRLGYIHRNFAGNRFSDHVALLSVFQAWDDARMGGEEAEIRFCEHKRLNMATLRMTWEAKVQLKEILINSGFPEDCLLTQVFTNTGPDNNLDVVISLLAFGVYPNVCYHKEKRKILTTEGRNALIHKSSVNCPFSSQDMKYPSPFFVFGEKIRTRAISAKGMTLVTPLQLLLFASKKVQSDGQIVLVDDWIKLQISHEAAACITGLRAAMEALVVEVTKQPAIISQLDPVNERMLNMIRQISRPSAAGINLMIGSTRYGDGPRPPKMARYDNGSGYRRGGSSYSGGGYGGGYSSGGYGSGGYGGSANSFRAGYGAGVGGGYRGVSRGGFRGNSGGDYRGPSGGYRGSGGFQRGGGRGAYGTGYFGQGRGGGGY

Cc1cc(C(=O)Nc2cc(Cl)cc(NS(C)(=O)=O)c2)cn1-c1ncc([S+](C)[O-])cn1 (stereo not shown) [Example 657]
DHX9 Biochemical Max Inhibition: 71.8
IC50: 14.7 nM

CS(=O)(=O)Nc1cc(Br)cc(NC(=O)c2cc(-c3ccccn3)n(CC#N)c2)c1 [Example 95, N-(3-bromo-5-methanesulfonamidophenyl)-1-(cyanomethyl)-5-(pyridin-2-yl)-1H-pyrrole-3-carboxamide]
DHX9 Biochemical Max Inhibition: 59.2%
IC50: 20.5 nM

Cc1sc(C(=O)Nc2cc(Cl)cc(NS(C)(=O)=O)c2)cc1-c1ncc(N2CC(F)(F)C2)cc1F [Example 532, N-(3-chloro-5-methanesulfonamidophenyl)-4-[5-(3,3-difluoroazetidin-1-yl)-3-fluoropyridin-2-yl]-5-methylthiophene-2-carboxamide]
DHX9 Biochemical Max Inhibition: 70.8
IC50: 26.4 nM

Cc1sc(C(=O)Nc2cc(Cl)cc(NS(C)(=O)=O)c2)cc1-n1cc(F)cn1 [Example 439]
DHX9 Biochemical Max Inhibition: 61.5
IC50: 18.7 nM

COc1cnc(-c2csc(C(=O)Nc3cc(Cl)cc(NS(C)(=O)=O)c3)c2)nc1 [Example 340]
DHX9 Biochemical Max Inhibition: 65.6%

CS(=O)(=O)Nc1cc(Cl)cc(NC(=O)c2cc(-c3ncc(OC4CN(S(C)(=O)=O)C4)cn3)n(CC(F)(F)F)c2)c1 [Example 651]
DHX9 Biochemical Max Inhibition: 59.6
IC50: 70.6 nM

CCS(=O)(=O)Nc1cc(Cl)cc(NC(=O)c2cc(-c3ncc(F)cn3)c(C3CC3)s2)c1 [Example 449]
DHX9 Biochemical Max Inhibition: 69.5
IC50: 336 nM

Cn1cc(C(=O)Nc2cc(Cl)cc(NS(C)(=O)=O)c2)cc1-c1ccc(N2CCC(F)(F)C2)cn1 [Example 527]
DHX9 Biochemical Max Inhibition: 65.3
IC50: 42.4 nM

CCOc1ccc(-c2csc(C(=O)Nc3cc(Cl)cc(NS(C)(=O)=O)c3)c2)nc1 [Example 339]
DHX9 Biochemical Max Inhibition: 71%
IC50: 10.7 nM

CS(=O)(=O)Nc1cc(Cl)cc(NC(=O)c2cnn(C3CC4(CC(N)C4)C3)c2)c1 (stereo not shown) [Example 319]
DHX9 Biochemical Max Inhibition: 70.1%
IC50: 57.7 nM

CCS(=O)(=O)Nc1cc(F)cc(NC(=O)c2cc(Br)cs2)c1 [Example 72]
DHX9 Biochemical Max Inhibition: 67.2%
IC50: 378 nM

Cc1cc(C(=O)Nc2cc(Cl)cc(NS(C)(=O)=O)c2)cn1-c1ncc(F)cc1F [Example 444]
DHX9 Biochemical Max Inhibition: 72.9
IC50: 39.1 nM

CS(=O)(=O)Nc1cc(Cl)cc(NC(=O)c2cnn(C3CCCC3)c2)c1 [Example 309]
DHX9 Biochemical Max Inhibition: 60.8%
IC50: 162 nM

Cc1cccnc1-c1csc(C(=O)Nc2cc(Br)cc(NS(C)(=N)=O)c2)c1 (stereo not shown) [Example 122]
DHX9 Biochemical Max Inhibition: 67.7%
IC50: 28.8 nM

CC(=O)N1CCN(c2cc(F)cnc2-c2cc(C(=O)Nc3cc(Cl)cc(NS(C)(=O)=O)c3)sc2C)CC1 [Example 504]
DHX9 Biochemical Max Inhibition: 65.9
IC50: 23.5 nM

CS(=O)(=O)Nc1cc(Cl)cc(NC(=O)c2cc(C(F)(F)F)n(-c3ccc(N4CCOCC4)cn3)c2)c1 [Example 271]
DHX9 Biochemical Max Inhibition: 66.1%
IC50: 86.5 nM

COc1cc(C(F)(F)F)cnc1-c1cc(C(=O)Nc2cc(Cl)cc(NS(C)(=O)=O)c2)sc1C [Example 550]
DHX9 Biochemical Max Inhibition: 99.8
IC50: 25 nM

Cn1cc(C(=O)Nc2cc(Cl)cc(NS(C)(=O)=O)c2)cc1-c1ncc(F)cc1/C=C/c1cncc(F)c1 [Example 729]
DHX9 Biochemical Max Inhibition: 45.5
IC50: 114 nM

Cn1nc(-c2ccccc2OCc2ccccc2)cc1C(=O)Nc1cc(Cl)cc(NS(C)(=O)=O)c1 [Example 139]
DHX9 Biochemical Max Inhibition: 59.1%
IC50: 6650 nM

COCc1cc(C(=O)Nc2cc(Cl)cc(NS(C)(=O)=O)c2)cn1-c1ncccc1F [Example 682]
DHX9 Biochemical Max Inhibition: 85.4
IC50: 83.5 nM

CS(=O)(=O)Nc1cc(Cl)cc(NC(=O)c2cnn(C3CC4(CNC4)C3)c2)c1 [Example 146]
DHX9 Biochemical Max Inhibition: 71.9%
IC50: 30.4 nM

CN1CC[C@@H](Oc2cnc(-c3cc(C(=O)Nc4cc(Cl)cc(NS(C)(=O)=O)c4)cn3C)c(F)c2)C1 [Example 640]
DHX9 Biochemical Max Inhibition: 59
IC50: 7 nM

CCS(=O)(=O)Nc1cc(Cl)cc(NC(=O)c2cc(-c3ccc(N4CC(F)(F)C4)cn3)n(C)c2)c1 [Example 403]
DHX9 Biochemical Max Inhibition: 84.5
IC50: 186 nM

COC(=O)[C@@H]1CCCN1c1csc(C(=O)Nc2cc(Cl)cc(NS(C)(=O)=O)c2)c1 [Example 242]
DHX9 Biochemical Max Inhibition: 69.7%
IC50: 105 nM

Cc1cncc2cc(C(=O)Nc3cc(Cl)cc(NS(C)(=O)=O)c3)sc12 [Example 290]
DHX9 Biochemical Max Inhibition: 59.7%
IC50: 5590 nM

Cn1cc(C(=O)Nc2cc(Cl)cc(NS(C)(=O)=O)c2)cc1-c1ncc(N2CCCC(F)(F)C2)cc1F [Example 483]
DHX9 Biochemical Max Inhibition: 56.4
IC50: 67.3 nM

Cn1cc(C(=O)Nc2cc(Cl)cc(NS(C)(=O)=O)c2)cc1-c1ccc(C#N)cn1 [Example 570]
DHX9 Biochemical Max Inhibition: 69.8
IC50: 21.4 nM

CS(=O)(=O)Nc1cc(Cl)cc(NC(=O)c2cc(C(=O)Nc3ccccc3)cs2)c1 [Example 166, N2-(3-chloro-5-(methylsulfonamido)phenyl)-N4-phenylthiophene-2,4-dicarboxamide]
DHX9 Biochemical Max Inhibition: 64%
IC50: 28.5 nM

Cc1sc(C(=O)Nc2cc(Cl)cc(NS(C)(=O)=O)c2)cc1-c1ncc(F)cc1-c1ccn(C)c(=O)c1 [Example 605]
DHX9 Biochemical Max Inhibition: 67.5
IC50: 24.6 nM

Cn1cc(C(=O)Nc2cc(Cl)cc(NS(C)(=O)=O)c2)nc1-c1ccccc1 [Example 155, N-(3-chloro-5-(methylsulfonamido)phenyl)-1-methyl-2-phenyl-1H-imidazole-4-carboxamide]
DHX9 Biochemical Max Inhibition: 66.4%
IC50: 126 nM

Cn1cc(C(=O)Nc2cc(Cl)cc(NS(C)(=O)=O)c2)cc1-c1ccc(N2CC3(C2)CC(F)(F)C3)cn1 [Example 498]
DHX9 Biochemical Max Inhibition: 65.4
IC50: 38 nM

CS(=O)(=O)Nc1cc(Br)cc(NC(=O)c2cnn(-c3ccccc3CO)c2)c1 [Example 161, N-(3-bromo-5-(methylsulfonamido)phenyl)-1-(2-(hydroxymethyl)phenyl)-1H-pyrazole-4-carboxamide]
DHX9 Biochemical Max Inhibition: 44.9%
IC50: 48.4 nM

CS(=O)(=O)Nc1cc(Cl)cc(NC(=O)c2cnn([C@@H]3CCCC[C@H]3O)c2)c1 (relative stereo) [Example 150, N-(3-chloro-5-(methylsulfonamido)phenyl)-1-(trans-2-hydroxycyclohexyl)-1H-pyrazole-4-carboxamide]
DHX9 Biochemical Max Inhibition: 65.9%

Cn1cc(C(=O)Nc2cc(Cl)cc(NS(C)(=O)=O)c2)cc1-c1ncc(F)cc1OC(F)F [Example 363]
DHX9 Biochemical Max Inhibition: 94.3%
IC50: 25.2 nM

CCOc1cnc(-c2cc(C(=O)Nc3cc(Cl)cc(NS(C)(=O)=O)c3)sc2C)c(F)c1 [Example 456]
DHX9 Biochemical Max Inhibition: 61.5
IC50: 16.2 nM

COC(=O)N1CCN(c2cnc(-c3cc(C(=O)Nc4cc(Cl)cc(NS(C)(=O)=O)c4)cn3C)c(F)c2)CC1 [Example 464]
DHX9 Biochemical Max Inhibition: 74.8
IC50: 5.7 nM

CC(=O)N1CCC(c2cnc(-c3cc(C(=O)Nc4cc(Cl)cc(NS(C)(=O)=O)c4)sc3C)nc2)CC1 [Example 699]
DHX9 Biochemical Max Inhibition: 93.6
IC50: 2.2 nM

Cn1cc(C(=O)Nc2cc(Cl)cc(NS(C)(=O)=O)c2)cc1-c1ccc(C2CCN(CC(F)(F)F)CC2)cn1 [Example 619]
DHX9 Biochemical Max Inhibition: 81.3
IC50: 178 nM

CS(=O)(=O)Nc1cc(Cl)cc(NC(=O)c2csc(-c3ccccc3)c2)c1 [Example 124, N-(3-chloro-5-(methylsulfonamido)phenyl)-5-phenylthiophene-3-carboxamide]
DHX9 Biochemical Max Inhibition: 53.8%
IC50: 604 nM

Cc1sc(C(=O)Nc2cc(Cl)cc(NS(C)(=O)=O)c2)cc1-c1ncccc1OC(C)c1cc(F)cc(F)c1 (single isomer, unassigned) [Example 633]
DHX9 Biochemical Max Inhibition: 71.2
IC50: 52.6 nM

Cc1cc(C(=O)Nc2cc(Cl)cc(NS(C)(=O)=O)c2)cn1-c1ccc(N2CC(F)C2)cn1 [Example 395]
DHX9 Biochemical Max Inhibition: 77.1
IC50: 6.6 nM

CN1CCN(c2cnc(-n3cc(C(=O)Nc4cc(Cl)cc(NS(C)(=O)=O)c4)cn3)cn2)CC1=O [Example 184]
DHX9 Biochemical Max Inhibition: 66.3%
IC50: 19.4 nM

CC(=O)N1CCN(c2ccc(-n3cc(C(=O)Nc4cc(Br)cc(NS(C)(=O)=O)c4)cn3)nc2)CC1 [Example 86, 1-(5-(4-acetylpiperazin-1-yl)pyridin-2-yl)-N-(3-bromo-5-(methylsulfonamido)phenyl)-1H-pyrazole-4-carboxamide]
DHX9 Biochemical Max Inhibition: 51.5%
IC50: 18.4 nM

Cn1cc(C(=O)Nc2cc(Cl)cc(NS(C)(=O)=O)c2)cc1-c1ccc(F)cn1 [Example 575]
DHX9 Biochemical Max Inhibition: 76.2
IC50: 17.7 nM

CS(=O)(=O)Nc1cc(Cl)cc(NC(=O)c2cnn(-c3ncccc3OCc3c[nH]cn3)c2)c1 [Example 254]
DHX9 Biochemical Max Inhibition: 64.1%
IC50: 59.5 nM
